Earlier results as cited in article PMC8763792, “Pharmacokinetic/Pharmacodynamic Based Breakpoints of Polymyxin B for Bloodstream Infections Caused by Multidrug-Resistant Gram-Negative Pathogens” (Frontiers in Pharmacology, 2022).
Read-outs that look alike come from different tables or passages of the source. Positions of bridges follow the written chain, without caps; N, C: chain ends. Non-standard residues stand in square brackets, D forms with d. Residues, ends and D or L forms follow the SMILES beside them. *: point of attachment. X1 = CC[C@H](C)CCCCC(=O)*; Dab = NCC[C@H](N)C(=O)O

Key:
K. pneumoniae = conditions: dash in Table S1 explained, ref Landersdorfer, C.B., 2018
Description: Supplement DataSheet1.zip/Table 1.DOCX, table 1: Table S1.

[1] = test system: extensively-drug resistant Gram-negative bacteria; conditions: polymyxin B-based regimens 100-200 mg/day, ≥5 days; bloodstream infection; ref Zhao et al., 2020
Description: This is in agreement with othe ...

[2] = Method: The area under the unbound concentration-time curve over 24 h to the MIC ratio (fAUC0–24h/MIC) is the most predictive PK/PD index for polymyxins ([Tam et al., 2005]; [Bergen et al., 2008]; [Bergen et al., 2010]; [Cheah et al., 2015]; [Landersdorfer et al., 2018]). PK/PD targets of 1-log10 CFU and 2-log10 CFU reductions in colony forming units (CFU)/thigh were derived from dose-fractionation studies of polymyxin B (K. pneumoniae) and colistin (P. aeruginosa and A. baumannii) in murine thigh infection models (Supplementary Table S1; [Cheah et al., 2015]; [Landersdorfer et al., 2018]). Given poly ... || The recommended dose of intravenously administered polymyxin B throughout much of the world is 1.5–2.5 mg/kg/day with a loading dose of 2–2.5 mg/kg ([Tsuji et al., 2019]). In China, the only brand of polymyxin B currently available has a recommended intravenous dose of 50–100 mg/day (Polymyxin B for injection ([Daily Med, 2017]), equivalent to 0.83–1.66 mg/kg/day (0.42–0.83 mg/kg/12 h) for a 60 kg patient. Importantly, [Lakota et al. (2018)] proposed that for pathogens with MICs ≤2 mg/L, the target AUC0–24h,ss for polymyxin B should be 50–100 mg h/L. In our study, the polymyxin B AUC0–24h,ss a ...
[3] = critically-ill patients, ref Sandri et al., 2013, Nation et al., 2017
Method: Removal of the “susceptible” interpretation category for polymyxins by CLSI was driven primarily by lung infection data ([He et al., 2013]; [Landersdorfer et al., 2018]). […] For bloodstream infections, the average steady-state concentrations (C ss,avg) achieved with intravenously administered polymyxin B (0.45–3.38 mg/kg/day) or CMS (2–18 MIU/day) are 2–3 mg/L (polymyxin B and colistin) in critically-ill p ...

Enterobacteriaceae = conditions: 54,476 isolates, 45 nations, 1997-2016; ref Diekema et al., 2019
Description: (§1) However, the success of this regimen will depend on regional susceptibility data. According to the SENTRY antimicrobial surveillance program for bloodstream infections (data collected from 45 nations including China between 1997 and 2016) ([Diekema et al., 2019]), the MIC90 of colistin for P. aeruginosa (7,107 isolates), A. baumannii or A. calcoaceticus ...

[4] = test system: A. baumannii or A. calcoaceticus; conditions: 3,124 isolates, 45 nations, 1997-2016; ref Diekema et al., 2019
Description: as §1

P. aeruginosa = conditions: 7,107 isolates, 45 nations, 1997-2016; ref Diekema et al., 2019
Description: as §1

CC[C@H](C)CCCCC(=O)N[C@@H](CCN)C(=O)N[C@H](C(=O)N[C@@H](CCN)C(=O)N[C@H]1CCNC(=O)[C@H]([C@@H](C)O)NC(=O)[C@H](CCN)NC(=O)[C@H](CCN)NC(=O)[C@H](CC(C)C)NC(=O)[C@@H](Cc2ccccc2)NC(=O)[C@H](CCN)NC1=O)[C@@H](C)O [polymyxin B] (X1-[Dab]T[Dab][Dab][Dab][dF]L[Dab][Dab]T; lactam 4-C (inferred); N-terminus assumed)
PK/PD target fAUC0-24h/MIC, 2-log10 CFU killing (K. pneumoniae): unable to produce a 2-log10 CFU decrease
28-day all-cause mortality [1]: 41.0%
Clearance rate of microorganisms [1]: 65.2%
Overall effectiveness (cure or improvement) [1]: 59.0%
Unbound fraction (f) in plasma ([2]; plasma, ref Sandri et al., 2013): 42%
Protein binding ([2]; ref Zavascki et al., 2008): 78.5–92.4%
Average steady-state concentration (Css,avg) ([3]; intravenous polymyxin B 0.45-3.38 mg/kg/day): 2000 to 3000 ng/mL

colistin
MIC90 (Enterobacteriaceae): > 4 µg/mL
MIC90 [4]: 2 µg/mL
MIC90 (P. aeruginosa): 2 µg/mL
Average steady-state concentration (Css,avg) ([3]; colistin after intravenous CMS 2-18 MIU/day): 2000 to 3000 ng/mL
